According to patent US12533353B2, “Methods of treatment of cancer comprising CDC7 inhibitors” (CARNA BIOSCIENCES, INC., priority 2018, dated 2026):
“And” between values parts separate entries of the source, which are not always exact repeats. Equal values may be shown once. Read-outs that look alike come from different tables or passages of the source.

Key:
OATP1B3 = OATP1B3 (Homo sapiens, UniProt Q9NPD5); experiment: In vitro transporter inhibition; format: in vitro ADME
[1] = Absolute oral bioavailability; conditions: in vivo, free base suspension, fasted, range given for mouse, rat and dog together, read-out: absolute oral bioavailability (% F)
[2] = In vitro plasma protein binding; format: in vitro ADME; conditions: human
[3] = tested on: bacterial reverse mutation; experiment: In vitro bacterial reverse mutation assay
From the text: SRA141 was negative for both mutagenicity and clastogenicity in in vitro bacterial reverse mutation and human lymphocyte chromosomal aberration assays.

[4] = tested on: Colo-205, SW620, SNU-398, NCI-H716, MDA-MB-231, NCI-H1573 and SW1116; experiment: Four orthogonal antiproliferative assays (CTG, CTB, CyQuant, Calcein AM); format: cell-based; conditions: 144 h compared with 72 h, all assays and cell lines
From the text: The antiproliferative activity of SRA141 was further characterized in seven cell lines (Colo-205, SW620, SNU-398, NCI-H716, MDA-MB-231, NCI-H1573 and SW1116) using four orthogonal assays designed to measure ATP levels (CTG); metabolic activity (CellTiter-Blue (CTB)); DNA content of the cells (CyQuant); and esterase activity (Calcein AM). The relative sensitivities of cell lines within each assay format were generally concordant.

MV-4-11 cancer cells = experiment: MV-4-11 human leukemia systemic survival study; format: in vivo, mouse
Description: Female NOD SCID mice intravenously inoculated with MV-4-11 cancer cells were administered (i) vehicle control (0.1 M HCl/0.5% MC400, oral) or (ii) SRA141 initially at 60 mg/kg BID for 5 consecutive days of a 7-day cycle from Days 0 to 21, and then due to significant body weight loss, at 40 mg/kg BID on the same schedule from Days 22 to 73 (n=10 per treatment group). Survival was the only efficacy endpoint in this study, given the systemic nature of the cancer model.

[5] = 4-cycle repeat oral dose toxicology study (5 days on/2 days off); format: in vivo, rat; conditions: for Cmax / AUC(0-t): plasma, po; for AUC(0-t): read-out: AUC24 h
Description: Toxicology studies evaluating SRA141 were conducted in rat and dog following single and repeat oral dosing for up to 4 cycles (5 days on/2 days off per cycle). In addition, the potential genetic toxicity of SRA141 was evaluated in vitro.

[6] = tested on: tumoral phospho-MCM2 (pMCM2); experiment: Mouse SW620 colorectal xenograft PK/PD assessment; format: in vivo
Description: The effect of SRA141 treatment on tumoral phospho-MCM2 (pMCM2), a direct substrate of Cdc7 and downstream marker of Cdc7 inhibition, was determined in mice bearing SW620 xenografts. Changes in pMCM2 were correlated with SRA141 concentrations in tumor and plasma over a 48-hour period following drug administration to construct a rudimentary PK/PD model.
Specifically, female BALB/c mice bearing subcutaneous SW620 tumors were administered single oral doses of SRA141 at 30, 60 or 120 mg/kg (n=15 per group). Control animals were administered vehicle (0.1 M HCl/0.5% MC400; n=10). At 2, 4, 8, 24 and 48 hours following treatment, three animals from each group (n=2 for control) were terminated, and plasma and tumor sampled for analysis.

AM7577 = experiment: AML PDX ex vivo 3D culture, 5 days; format: cell-based
Description: (§1) The activity of SRA141 was investigated in in vitro and ex vivo three-dimensional (3D) cultures prepared from three AML cell lines (EOL-1, Molm-16 and MV-4-11) and three AML PDX models (AM5512, AM7440 and AM7577), respectively. Tumor cultures were treated with SRA141 (0.08 to 33 μM) for 5 days.

AM5512 = experiment: AML PDX ex vivo 3D culture, 5 days; format: cell-based
Description: as §1

AM7440 = experiment: AML PDX ex vivo 3D culture, 5 days; format: cell-based
Description: as §1

[7] = Absolute oral bioavailability; conditions: monkey, in vivo, free base suspension, read-out: absolute oral bioavailability (% F)
MV-4-11 tumor xenografts = experiment: Rat xenograft model of AML (MV-4-11), SRA141 monotherapy; format: in vivo; design: complete regressions (tumor volume <13.5 mm3 for 3 consecutive measurements): unit not given here; conditions: for tumor growth inhibition (TGI): 5 days of 7-day cycle, 4 weeks, Day 42; for median tumor volume: in mm³ (unit assumed)
Description: The efficacy of a Cdc7 inhibitor (compound SRA141) as a monotherapy was tested in a rat xenograft model of Acute Myelogenous Leukemia (AML) (FIG. 2). Female rnu/rnu rats were inoculated subcutaneously with 1×10^7 MV-4-11 human acute myelogenous leukemia cells. MV-4-11 cells were injected in a totally volume of 0.1 mL PBS in 1:1 Matrigel®. Rats began SRA141 treatment when tumors reached an average size of 300-400 mm^3. Rats bearing MV-4-11 tumor xenografts were orally administered (i) vehicle control (0.5% CMC-Na/1% Poloxamer 188) or (ii) SRA141 at 75 mg/kg BID for 5 consecutive days of a 7-day cycle for 4 weeks or (iii) SRA141 at 150 mg/kg QD for 5 consecutive days of a 7-day cycle for 4 weeks (n=10 per treatment group). Tumor volume measurements were taken biweekly and body weight measurements were taken biweekly to day 15, then daily to end of study. Tumor growth inhibition was calculated on Day 42, the final day of the study.

[8] = In vitro plasma protein binding; format: in vitro ADME; conditions: range given for mouse and dog together
[9] = 60 then 40 mg/kg BID, 5 days of 7-day cycle
[10] = 50 mg/kg/day, at NOAEL, rat, female
[11] = 50 mg/kg/day, at NOAEL, rat, male
[12] = 100 mg/kg/day, at MTD/HNSTD, rat, female
[13] = 100 mg/kg/day, at MTD/HNSTD, rat, male

Sequence of OATP1B3 (Q9NPD5 whole entry): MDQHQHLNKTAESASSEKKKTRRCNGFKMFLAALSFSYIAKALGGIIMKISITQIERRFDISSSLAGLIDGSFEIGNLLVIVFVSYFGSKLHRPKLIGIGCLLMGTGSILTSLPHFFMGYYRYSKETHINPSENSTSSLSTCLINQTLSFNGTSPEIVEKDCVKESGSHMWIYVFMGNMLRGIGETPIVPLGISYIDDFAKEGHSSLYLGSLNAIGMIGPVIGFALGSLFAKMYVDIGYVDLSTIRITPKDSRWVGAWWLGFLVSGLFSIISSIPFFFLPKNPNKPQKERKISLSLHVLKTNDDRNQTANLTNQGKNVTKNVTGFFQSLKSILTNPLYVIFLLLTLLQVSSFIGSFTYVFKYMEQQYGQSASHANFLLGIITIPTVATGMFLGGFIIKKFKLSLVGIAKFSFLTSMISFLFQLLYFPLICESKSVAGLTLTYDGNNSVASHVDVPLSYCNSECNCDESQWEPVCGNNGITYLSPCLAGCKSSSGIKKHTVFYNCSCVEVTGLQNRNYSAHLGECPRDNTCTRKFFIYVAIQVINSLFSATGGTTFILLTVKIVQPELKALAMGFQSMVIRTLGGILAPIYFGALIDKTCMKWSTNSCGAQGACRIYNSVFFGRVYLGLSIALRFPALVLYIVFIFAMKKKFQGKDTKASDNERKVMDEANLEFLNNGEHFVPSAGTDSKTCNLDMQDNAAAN

CCOC(=O)C1=C(NN2CCN(CC(F)(F)F)CC2)O/C(=C\c2c[nH]c3ncccc23)C1=O [SRA141]
inhibition at 10 µM (OATP1B3): > 50%
bioavailability [1]: 31 to 54%
fraction unbound [2]: < 0.1
mutagenicity [3]: negative
potency versus treatment duration [4]: consistent increase of SRA141 potency was observed with a longer treatment duration of 144 h
median survival, all animals including premature decedents (MV-4-11 cancer cells; [9]): 35 days
median survival, premature decedents censored (MV-4-11 cancer cells; [9]): greater than 99 days
mice with body weight loss greater than 20% (MV-4-11 cancer cells; SRA141-treated mice): One of ten
MTD at 4 cycles (5 days on/2 days off) ([5]; in vivo, oral, rat (MTD), read-out: MTD/HNSTD Dose): 100 mg/kg/day
Cmax [5, 10]: 711 ng/mL
AUC(0-t) [5, 10]: 8550 ng·h/mL
Cmax [5, 11]: 289 ng/mL
AUC(0-t) [5, 11]: 2870 ng·h/mL
Cmax [5, 12]: 1610 ng/mL
AUC(0-t) [5, 12]: 29000 ng·h/mL
Cmax [5, 13]: 390 ng/mL
AUC(0-t) [5, 13]: 5130 ng·h/mL
NOAEL Dose ([5]; rat): 300 mg/m2/day
MTD/HNSTD Dose ([5]; rat (MTD)): 600 mg/m2/day
potential target organs for SRA141-related toxicity ([5]; rat and dog repeat-dose studies together): gallbladder/biliary system, lymphoid tissues (spleen, thymus, lymph node and GALT), bone marrow, liver, kidney, male and female reproductive tract, peripheral leukocytes, and salivary gland
NOAEL at 4 cycles (5 days on/2 days off) ([5]; rat, in vivo, oral): 50 mg/kg/day
time of peak pMCM2 decrease ([6]; 30 mg/kg and 60 mg/kg single doses): 2-4 hours
Maximal SRA141 plasma concentration ([6]; 30 mg/kg single oral dose): ~1 µg/mL
Maximal SRA141 plasma concentration ([6]; 60 mg/kg single oral dose): ~1.5 µg/mL
time of peak pMCM2 decrease ([6]; 120 mg/kg single dose): 2-8 hours
time of maximal plasma concentration after administration ([6]; 30, 60 and 120 mg/kg): 2 to 4 h
tumoral concentrations relative to plasma ([6]; 30, 60 and 120 mg/kg): similar
circulating plasma and intra-tumoral tissue concentration required to inhibit pMCM2 by 50% ([6]; correlation of PK and PD data): approximately 1.1 μM
IC50 (AM7577): 150 nM
IC50 (AM5512): 3200 nM and 3160 nM
IC50 (AM7440): 1610 nM
bioavailability [7]: 1 to 33%
complete regressions (tumor volume <13.5 mm3 for 3 consecutive measurements) (MV-4-11 tumor xenografts; 75 mg/kg BID): 1
partial regressions (tumor volume <50% of initial volume for 3 consecutive measurements) (MV-4-11 tumor xenografts; 75 mg/kg BID): 3
tumor growth inhibition (TGI) (MV-4-11 tumor xenografts; 75 mg/kg BID): 86.1%
median tumor volume (MV-4-11 tumor xenografts; 75 mg/kg group (n=8)): 1838
partial regressions (MV-4-11 tumor xenografts; 150 mg/kg QD): 2
tumor growth inhibition (TGI) (MV-4-11 tumor xenografts; 150 mg/kg QD): 86.7%
median tumor volume (MV-4-11 tumor xenografts; 150 mg/kg group (n=9)): 1764
tolerability (MV-4-11 tumor xenografts; all treatments): well tolerated with no significant body weight loss
fraction unbound [8]: 0.23 to 0.42
